Test results from US7846945B2, “Piperdine-based inhibitors of sodium glucose co-transporter 2 and methods of their use” (Lexicon Pharmaceuticals, Inc., priority 2007, dated 2010).

Target: T1, Human sodium/glucose co-transporter type 2 (SGLT2) (Homo sapiens, UniProt P31639)
T1 construct: HA; expressed in transfected cells
T1 sequence (P31639 1-672): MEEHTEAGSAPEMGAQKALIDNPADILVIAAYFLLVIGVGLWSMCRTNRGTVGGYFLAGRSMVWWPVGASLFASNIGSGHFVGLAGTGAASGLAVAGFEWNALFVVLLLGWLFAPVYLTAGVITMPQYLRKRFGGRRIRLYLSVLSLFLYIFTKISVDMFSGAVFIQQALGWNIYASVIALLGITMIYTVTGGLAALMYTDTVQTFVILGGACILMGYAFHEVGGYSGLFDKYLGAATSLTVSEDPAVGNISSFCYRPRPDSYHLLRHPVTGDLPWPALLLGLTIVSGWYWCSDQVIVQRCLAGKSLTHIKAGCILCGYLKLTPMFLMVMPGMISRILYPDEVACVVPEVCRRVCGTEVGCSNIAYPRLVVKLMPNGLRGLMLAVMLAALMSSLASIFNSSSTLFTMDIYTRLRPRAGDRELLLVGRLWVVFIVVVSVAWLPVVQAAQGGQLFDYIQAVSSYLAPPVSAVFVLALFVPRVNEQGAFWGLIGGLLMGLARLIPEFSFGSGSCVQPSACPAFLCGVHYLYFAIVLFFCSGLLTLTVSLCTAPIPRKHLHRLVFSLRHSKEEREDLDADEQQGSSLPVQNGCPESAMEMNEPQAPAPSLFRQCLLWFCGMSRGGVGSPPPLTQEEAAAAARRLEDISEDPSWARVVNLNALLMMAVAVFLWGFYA
Assay: In vitro human SGLT2 inhibition assay (14C-AMG uptake)
Assay type: cell-based
Details: HEK293 cells expressing human HA-SGLT2; potent = SGLT2 IC50 of less than about 500 nM; read-out: SGLT2 IC50 (potent SGLT2 inhibitor mark)
Method: HEK293 cells were transfected with the human HA-SGLT2-pIRESpuro2 vector and the bulk stable cell line was selected in presence of 0.5 μg/ml of puromycin. Human HA-SGLT2 cells were maintained in DMEM media containing 10% FBS, 1% GPS and 0.5 μg/ml of puromycin.
The HEK293 cells expressing the human HA-SGLT2 were seeded in 384 well plates (30,000 cells/well) in DMEM media containing 10% FBS, 1% GPS and 0.5 μg/ml of puromycin, then incubated overnight at 37 C, 5% CO2. Cells were then washed with uptake buffer (140 mM NaCl, 2 mM KCl, 1 mM CaCl2, 1 mM MgCl2, 10 mM HEPES, 5 mM Tris, 1 mg/ml bovine serum albumin (BSA), pH 7.3). Twenty microliters of uptake buffer with or without testing compounds were added to the cells. Then, 20 microliters of uptake buffer containing ^14C-AMG (100 nCi) were added to the cells. The cell plates were incubated at 37° C., 5% CO2 for 1-2 hours. After washing the cells with uptake buffer, scintillation fluid was added (40 microliters/well) and ^14C-AMG uptake was measured by counting radioactivity using a scintillation coulter (TopCoulter NXT; Packard Instruments).
The IC50 of a compound with regard to a given target is determined by fitting the relevant data, using the Levenburg Marquardt algorithm, to the equation: y=A+((B−A)/(1+((C/x)^D))) wherein A is the minimum y value; B is the maximum y value; C is the IC50; and D is the slope.

Row | SMILES | IC50
1 | CCOc1ccc(Cc2cc([C@@H]3O[C@H](SCCO)[C@@H](O)[C@H](O)[C@H]3O)ccc2Cl)cc1 [(2S,3R,4R,5S,6R)-2-[4-Chloro-3-(4-ethoxy-benzyl)-phenyl]-6-(2-hydroxy-ethylsulfanyl)-tetrahydro-pyran-3,4,5-triol] | < 500 nM
2 | CCOc1ccc(Cc2cc([C@@H]3O[C@H](SC4CCOC4C)[C@@H](O)[C@H](O)[C@H]3O)ccc2Cl)cc1 (stereo partly drawn) [(2S,3R,4R,5S,6R)-2-[4-Chloro-3-(4-ethoxy-benzyl)-phenyl]-6-(2-methyl-tetrahydro-furan-3-ylsulfanyl)-tetrahydro-pyran-3,4,5-triol] | < 500 nM
3 | CCOc1ccc(Cc2cc([C@@H]3O[C@H](SCCC(C)C)[C@@H](O)[C@H](O)[C@H]3O)ccc2Cl)cc1 [(2S,3R,4R,5S,6R)-2-[4-Chloro-3-(4-ethoxy-benzyl)-phenyl]-6-(3-methyl-butylsulfanyl)-tetrahydro-pyran-3,4,5-triol] | < 500 nM
4 | CCOc1ccc(Cc2cc([C@@H]3O[C@H](SCc4ccco4)[C@@H](O)[C@H](O)[C@H]3O)ccc2Cl)cc1 [(2S,3R,4R,5S,6R)-2-[4-Chloro-3-(4-ethoxy-benzyl)-phenyl]-6-(furan-2-ylmethylsulfanyl)-tetrahydro-pyran-3,4,5-triol] | < 500 nM
5 | CCOc1ccc(Cc2cc([C@@H]3O[C@H](SC4CCCC4)[C@@H](O)[C@H](O)[C@H]3O)ccc2Cl)cc1 [(2S,3R,4R,5S,6R)-2-[4-Chloro-3-(4-ethoxy-benzyl)-phenyl]-6-cyclopentylsulfanyl-tetrahydro-pyran-3,4,5-triol] | < 500 nM
6 | CCOc1ccc(Cc2cc([C@@H]3O[C@H]([S+]([O-])CC)[C@@H](O)[C@H](O)[C@H]3O)ccc2Cl)cc1 (stereo partly drawn) [(2S,3R,4R,5S,6R)-2-[4-Chloro-3-(4-ethoxy-benzyl)-phenyl]-6-ethanesulfinyl-tetrahydro-pyran-3,4,5-triol] | < 500 nM
7 | CCOc1ccc(Cc2cc([C@@H]3O[C@H](SCC)[C@@H](O)[C@H](O)[C@H]3O)ccc2Cl)cc1 [(2S,3R,4R,5S,6R)-2-[4-Chloro-3-(4-ethoxy-benzyl)-phenyl]-6-ethylsulfanyl-tetrahydro-pyran-3,4,5-triol] | < 500 nM
8 | CCOc1ccc(Cc2cc([C@@H]3O[C@H]([S+](C)[O-])[C@@H](O)[C@H](O)[C@H]3O)ccc2Cl)cc1 (stereo partly drawn) [(2S,3R,4R,5S,6R)-2-[4-Chloro-3-(4-ethoxy-benzyl)-phenyl]-6-methanesulfinyl-tetrahydro-pyran-3,4,5-triol] | < 500 nM
9 | CCOc1ccc(Cc2cc([C@@H]3O[C@H](SC)[C@@H](O)[C@H](O)[C@H]3O)ccc2Cl)cc1 [(2S,3R,4R,5S,6R)-2-[4-Chloro-3-(4-ethoxy-benzyl)-phenyl]-6-methylsulfanyl-tetrahydro-pyran-3,4,5-triol] | < 500 nM
10 | CCOc1ccc(Cc2cc([C@@H]3O[C@H](Oc4ccccc4)[C@@H](O)[C@H](O)[C@H]3O)ccc2Cl)cc1 [(2S,3R,4R,5S,6R)-2-[4-Chloro-3-(4-ethoxy-benzyl)-phenyl]-6-phenoxy-tetrahydro-pyran-3,4,5-triol] | < 500 nM
11 | CO[C@H]1O[C@@H](c2ccc(Cl)c(Cc3ccc(O[C@@H]4CCOC4)cc3)c2)[C@H](O)[C@@H](O)[C@@H]1O [(2S,3R,4R,5S,6S)-2-(4-Chloro-3-{4-[(R)-(tetrahydro-furan-3-yl)oxy]-benzyl}-phenyl)-6-methoxy-tetrahydro-pyran-3,4,5-triol] | < 500 nM
12 | CCOc1ccc(Cc2cc([C@@H]3O[C@H](OCCO)[C@@H](O)[C@H](O)[C@H]3O)ccc2Cl)cc1 [(2S,3R,4R,5S,6S)-2-[4-Chloro-3-(4-ethoxy-benzyl)-phenyl]-6-(2-hydroxy-ethoxy)-tetrahydro-pyran-3,4,5-triol] | < 500 nM
13 | CCOc1ccc(C(O)c2cc([C@@H]3O[C@H](OC)[C@@H](O)[C@H](O)[C@H]3O)ccc2Cl)cc1 (stereo partly drawn) [(2S,3R,4R,5S,6S)-2-{4-Chloro-3-[(4-ethoxy-phenyl)-hydroxy-methyl]-phenyl}-6-methoxy-tetrahydro-pyran-3,4,5-triol] | < 500 nM
14 | CCOc1ccc(Cc2cc([C@H]3[C@H](O)[C@@H](O)[C@H](O)CN3Cc3ccccc3)ccc2Cl)cc1 [(2S,3S,4S,5R)-1-Benzyl-2-[4-chloro-3-(4-ethoxy-benzyl)-phenyl]-piperidine-3,4,5-triol] | < 500 nM
15 | CCOc1ccc(Cc2cc([C@H]3[C@H](O)[C@@H](O)[C@H](O)CN3CC(C)C)ccc2Cl)cc1 [(2S,3S,4S,5R)-2-[4-Chloro-3-(4-ethoxy-benzyl)-phenyl]-1-isobutyl-piperidine-3,4,5-triol] | < 500 nM
16 | C=CCNC(=O)N1C[C@@H](O)[C@H](O)[C@@H](O)[C@@H]1c1ccc(Cl)c(Cc2ccc(OCC)cc2)c1 [(2S,3S,4S,5R)-2-[4-Chloro-3-(4-ethoxy-benzyl)-phenyl]-3,4,5-trihydroxy-piperidine-1-carboxylic acid allyl amide] | < 500 nM
17 | CCOc1ccc(Cc2cc(C3NC(CO)[C@@H](O)[C@H](O)[C@H]3O)ccc2Cl)cc1 (stereo partly drawn) [(3S,4R,5R)-2-[4-Chloro-3-(4-ethoxy-benzyl)-phenyl]-6-hydroxymethyl-piperidine-3,4,5-triol] | < 500 nM
18 | CCOc1ccc(Cc2cc([C@@H]3OC(OCc4ccccc4)[C@@H](O)[C@H](O)[C@H]3O)ccc2Cl)cc1 (stereo partly drawn) [(3S,4R,5R,6S)-2-Benzyloxy-6-[4-chloro-3-(4-ethoxy-benzyl)-phenyl]-tetrahydro-pyran-3,4,5-triol] | < 500 nM
19 | CCOc1ccc(Cc2cc([C@@H]3O[C@H](SC[C@H](N)C(=O)O)[C@@H](O)[C@H](O)[C@H]3O)ccc2Cl)cc1 [(R)-2-Amino-3-{(2R,3S,4R,5R,6S)-6-[4-chloro-3-(4-ethoxy-benzyl)-phenyl]-3,4,5-trihydroxy-tetrahydro-pyran-2-ylsulfanyl}-propionic acid] | < 500 nM
20 | COC1O[C@@H](c2ccc(Cl)c(Cc3ccc(OC(=S)N(C)C)cc3)c2)[C@H](O)[C@@H](O)[C@@H]1O (stereo partly drawn) [Dimethyl-thiocarbamic acid O-{4-[2-chloro-5-((2S,3R,4R,5S)-3,4,5-trihydroxy-6-methoxy-tetrahydro-pyran-2-yl)-benzyl]-phenyl} ester] | < 500 nM
21 | CCOc1ccc(Cc2cc([C@@H]3O[C@H](SCCNC(C)=O)[C@@H](O)[C@H](O)[C@H]3O)ccc2Cl)cc1 [N-(2-{(2R,3S,4R,5R,6S)-6-[4-Chloro-3-(4-ethoxy-benzyl)-phenyl]-3,4,5-trihydroxy-tetrahydro-pyran-2-ylsulfanyl}-ethyl)-acetamide] | < 500 nM
22 | CCOc1ccc(C(=O)c2cc([C@@H]3O[C@H](OC)[C@@H](O)[C@H](O)[C@H]3O)ccc2Cl)cc1 [[2-Chloro-5-((2S,3R,4R,5S,6S)-3,4,5-trihydroxy-6-methoxy-tetrahydro-pyran-2-yl)-phenyl]-(4-ethoxy-phenyl)-methanone] | < 500 nM
23 | CCOc1ccc(Cc2cc([C@@H]3OC(OCC(=O)OC)[C@@H](O)[C@H](O)[C@H]3O)ccc2Cl)cc1 (stereo partly drawn) [{(3S,4R,5R,6S)-6-[4-Chloro-3-(4-ethoxy-benzyl)-phenyl]-3,4,5-trihydroxy-tetrahydro-pyran-2-yloxy}-acetic acid methyl ester] | < 500 nM
